Results from ChEMBL document CHEMBL1155993, “5-(2-Pyrimidinyl)-imidazo[1,2-a]pyridines are antibacterial agents targeting the ATPase domains of DNA gyrase and topoisomerase IV” (Bioorg Med Chem Lett, 2009).
≈ marks a conversion by molar mass, not a printed value.

Key:
[1] = molecular target: DNA gyrase subunit B (Streptococcus pneumoniae serotype 4 (strain ATCC BAA-334 / TIGR4), UniProt P0A4L9); assay: Inhibition of Streptococcus pneumoniae SP-3 gyrB by enzyme coupled phosphate assay
[2] = molecular target: T1, ParE (Streptococcus pneumoniae, UniProt Q7X1P7); assay: Inhibition of Streptococcus pneumoniae SP-3 parE after 30 mins
T1 sequence (Q7X1P7 whole entry): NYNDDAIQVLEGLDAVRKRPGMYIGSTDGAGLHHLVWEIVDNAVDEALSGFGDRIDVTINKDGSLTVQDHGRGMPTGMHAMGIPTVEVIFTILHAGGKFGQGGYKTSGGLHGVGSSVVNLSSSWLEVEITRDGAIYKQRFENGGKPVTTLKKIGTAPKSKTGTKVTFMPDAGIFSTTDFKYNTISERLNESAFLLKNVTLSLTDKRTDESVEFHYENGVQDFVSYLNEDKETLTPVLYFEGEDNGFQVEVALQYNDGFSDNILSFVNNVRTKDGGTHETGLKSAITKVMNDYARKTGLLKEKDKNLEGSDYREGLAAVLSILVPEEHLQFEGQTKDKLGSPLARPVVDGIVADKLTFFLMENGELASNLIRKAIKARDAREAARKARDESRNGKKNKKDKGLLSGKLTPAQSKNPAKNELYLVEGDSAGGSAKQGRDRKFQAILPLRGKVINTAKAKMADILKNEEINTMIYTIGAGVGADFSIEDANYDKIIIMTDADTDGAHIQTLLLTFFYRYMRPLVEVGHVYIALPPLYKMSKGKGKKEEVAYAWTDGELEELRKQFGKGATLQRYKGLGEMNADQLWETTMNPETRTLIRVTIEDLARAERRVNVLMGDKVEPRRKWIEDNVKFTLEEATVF

[3] = system: Staphylococcus aureus; assay: Antibacterial activity against Staphylococcus aureus UC76 by NCCLS method; format: functional, organism-based; details: read-out: MIC
[4] = system: Streptococcus pyogenes; assay: Antibacterial activity against Streptococcus pyogenes SP1-1 by NCCLS method; format: functional
[5] = system: Streptococcus pneumoniae; assay: Antibacterial activity against Streptococcus pneumoniae SP-3 by NCCLS method; format: functional
[6] = system: Streptococcus pneumoniae; assay: Antibacterial activity against fluoroquinolone resistant Streptococcus pneumoniae SP-3765 by NCCLS method; format: functional
[7] = system: Staphylococcus aureus; assay: Antibacterial activity against methicillin resistant Staphylococcus aureus SA-1417 by NCCLS method; format: functional

Chain of DNA gyrase subunit B (P0A4L9 whole entry): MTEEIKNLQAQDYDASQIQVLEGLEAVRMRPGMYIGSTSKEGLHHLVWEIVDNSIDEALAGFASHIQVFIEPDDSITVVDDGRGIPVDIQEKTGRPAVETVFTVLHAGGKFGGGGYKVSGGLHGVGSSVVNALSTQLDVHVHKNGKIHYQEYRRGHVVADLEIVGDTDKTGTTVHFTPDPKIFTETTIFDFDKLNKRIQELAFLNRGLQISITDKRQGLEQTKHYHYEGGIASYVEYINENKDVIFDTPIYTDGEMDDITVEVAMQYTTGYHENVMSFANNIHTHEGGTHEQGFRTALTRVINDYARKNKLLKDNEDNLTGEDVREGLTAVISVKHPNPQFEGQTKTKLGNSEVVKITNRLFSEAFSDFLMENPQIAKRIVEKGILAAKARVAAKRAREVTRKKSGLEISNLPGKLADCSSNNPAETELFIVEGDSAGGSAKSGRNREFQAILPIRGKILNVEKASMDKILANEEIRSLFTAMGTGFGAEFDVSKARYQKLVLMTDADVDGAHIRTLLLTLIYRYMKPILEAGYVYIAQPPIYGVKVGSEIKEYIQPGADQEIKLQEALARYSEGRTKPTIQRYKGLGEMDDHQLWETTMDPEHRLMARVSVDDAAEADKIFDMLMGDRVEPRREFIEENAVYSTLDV

Structure (SMILES)	IC50 [1]	IC50 [2]	MIC [3]	MIC [4]	MIC [5]	MIC [6]	MIC [7]
CCNC(=O)Nc1cn2c(-c3ncccn3)cc(-c3cnc(N(C)C)nc3)cc2n1	137 nM	611 nM	1 µg/mL (≈ 2.48 µM)	0.25 µg/mL (≈ 0.62 µM)	0.125 µg/mL (≈ 0.31 µM)	0.125 µg/mL (≈ 0.31 µM)	–
CCNC(=O)Nc1cn2c(-c3ncc(C)cn3)cc(-c3ccn(CC(=O)O)c(=O)c3)cc2n1	98 nM	2140 nM	64 µg/mL (≈ 143 µM)	64 µg/mL (≈ 143 µM)	64 µg/mL (≈ 143 µM)	64 µg/mL (≈ 143 µM)	32 µg/mL (≈ 71.5 µM)
CCNC(=O)Nc1cn2c(-c3ncccn3)cc(-c3ccc(C)nc3)cc2n1	44 nM	119 nM	0.25 µg/mL (≈ 0.669 µM)	0.25 µg/mL (≈ 0.669 µM)	0.06 µg/mL (≈ 0.161 µM)	0.06 µg/mL (≈ 0.161 µM)	–
CCNC(=O)Nc1cn2c(-c3nccc(C)n3)cc(-c3cnc(N(C)C)nc3)cc2n1	113 nM	424 nM	0.5 µg/mL (≈ 1.2 µM)	0.25 µg/mL (≈ 0.599 µM)	0.25 µg/mL (≈ 0.599 µM)	0.125 µg/mL (≈ 0.299 µM)	–
CCNC(=O)Nc1cn2c(-c3ncc(C)cn3)cc(-c3ccc(C)nc3)cc2n1	96 nM	373 nM	0.5 µg/mL (≈ 1.29 µM)	0.25 µg/mL (≈ 0.645 µM)	0.5 µg/mL (≈ 1.29 µM)	0.25 µg/mL (≈ 0.645 µM)	1 µg/mL (≈ 2.58 µM)
CCNC(=O)Nc1cn2c(-c3ncc(C)cn3)cc(-c3cnc(OC)nc3)cc2n1	132 nM	3640 nM	16 µg/mL (≈ 39.6 µM)	32 µg/mL (≈ 79.1 µM)	16 µg/mL (≈ 39.6 µM)	16 µg/mL (≈ 39.6 µM)	> 64 µg/mL
CCNC(=O)Nc1cn2c(-c3nc(C(F)(F)F)cc(C(F)(F)F)n3)cc(-c3cccnc3)cc2n1	242 nM	745 nM	2 µg/mL (≈ 4.04 µM)	1 µg/mL (≈ 2.02 µM)	0.25 µg/mL (≈ 0.505 µM)	0.125 µg/mL (≈ 0.252 µM)	4 µg/mL (≈ 8.07 µM)
CCNC(=O)Nc1cn2c(-c3ncc(C(C)C)cn3)cc(-c3cccnc3)cc2n1	1910 nM	1380 nM	1 µg/mL (≈ 2.49 µM)	0.5 µg/mL (≈ 1.25 µM)	0.25 µg/mL (≈ 0.623 µM)	0.25 µg/mL (≈ 0.623 µM)	–
CCNC(=O)Nc1cn2c(-c3nc(C)cc(C)n3)cc(-c3cccnc3)cc2n1	198 nM	541 nM	1 µg/mL (≈ 2.58 µM)	1 µg/mL (≈ 2.58 µM)	0.5 µg/mL (≈ 1.29 µM)	0.5 µg/mL (≈ 1.29 µM)	4 µg/mL (≈ 10.3 µM)
CCNC(=O)Nc1cn2c(-c3ncc(C)cn3)cc(-c3ccn(C)c(=O)c3)cc2n1	–	–	0.5 µg/mL (≈ 1.24 µM)	0.125 µg/mL (≈ 0.31 µM)	0.06 µg/mL (≈ 0.149 µM)	0.06 µg/mL (≈ 0.149 µM)	–
CCNC(=O)Nc1cn2c(-c3ncc(C)cn3)cc(-c3ccn(CC)c(=O)c3)cc2n1	51 nM	624 nM	0.25 µg/mL (≈ 0.599 µM)	1 µg/mL (≈ 2.4 µM)	0.06 µg/mL (≈ 0.144 µM)	0.125 µg/mL (≈ 0.299 µM)	0.5 µg/mL (≈ 1.2 µM)
CNC(=O)Nc1cn2c(-c3ncc(C)cn3)cc(-c3cccnc3)cc2n1	92 nM	629 nM	4 µg/mL (≈ 11.1 µM)	2 µg/mL (≈ 5.56 µM)	1 µg/mL (≈ 2.78 µM)	0.25 µg/mL (≈ 0.696 µM)	–
CCNC(=O)Nc1cn2c(-c3nc(C)cc(C(F)(F)F)n3)cc(-c3cccnc3)cc2n1	216 nM	546 nM	0.5 µg/mL (≈ 1.13 µM)	0.5 µg/mL (≈ 1.13 µM)	0.25 µg/mL (≈ 0.566 µM)	0.125 µg/mL (≈ 0.283 µM)	1 µg/mL (≈ 2.27 µM)
CCNC(=O)Nc1cn2c(-c3ncc(F)cn3)cc(-c3cccnc3)cc2n1	56 nM	364 nM	1 µg/mL (≈ 2.65 µM)	0.5 µg/mL (≈ 1.32 µM)	0.125 µg/mL (≈ 0.331 µM)	0.125 µg/mL (≈ 0.331 µM)	–
Cc1cnc(-c2cc(-c3cccnc3)cc3nc(NC(=O)N(C)C(F)(F)F)cn23)nc1	368 nM	504 nM	8 µg/mL (≈ 18.7 µM)	16 µg/mL (≈ 37.4 µM)	0.25 µg/mL (≈ 0.585 µM)	0.125 µg/mL (≈ 0.292 µM)	4 µg/mL (≈ 9.36 µM)
CCNC(=O)Nc1cn2c(-c3ncccn3)cc(-c3cncnc3)cc2n1	75 nM	280 nM	0.5 µg/mL (≈ 1.39 µM)	0.5 µg/mL (≈ 1.39 µM)	0.125 µg/mL (≈ 0.347 µM)	0.125 µg/mL (≈ 0.347 µM)	–

Structure (SMILES)	IC50 [1]	IC50 [2]	MIC [3]	MIC [4]	MIC [5]	MIC [6]	MIC [7]
CCCCNC(=O)Nc1cn2c(-c3ncc(C)cn3)cc(-c3cccnc3)cc2n1	261 nM	4750 nM	8 µg/mL (≈ 19.9 µM)	2 µg/mL (≈ 4.98 µM)	2 µg/mL (≈ 4.98 µM)	0.125 µg/mL (≈ 0.311 µM)	–
CCNC(=O)Nc1cn2c(-c3ncc(C)cn3)cc(-c3cncnc3)cc2n1	36 nM	258 nM	0.25 µg/mL (≈ 0.668 µM)	0.5 µg/mL (≈ 1.34 µM)	0.25 µg/mL (≈ 0.668 µM)	0.06 µg/mL (≈ 0.16 µM)	1 µg/mL (≈ 2.67 µM)
CCNC(=O)Nc1cn2c(-c3nccc(C(=O)OC)n3)cc(-c3cccnc3)cc2n1	52 nM	911 nM	8 µg/mL (≈ 19.2 µM)	32 µg/mL (≈ 76.7 µM)	16 µg/mL (≈ 38.3 µM)	16 µg/mL (≈ 38.3 µM)	8 µg/mL (≈ 19.2 µM)
CCNC(=O)Nc1cn2c(-c3ncc(Cl)cn3)cc(-c3cccnc3)cc2n1	149 nM	419 nM	0.25 µg/mL (≈ 0.635 µM)	0.125 µg/mL (≈ 0.317 µM)	0.06 µg/mL (≈ 0.152 µM)	0.03 µg/mL (≈ 0.0762 µM)	0.25 µg/mL (≈ 0.635 µM)
Cc1cnc(-c2cc(-c3cccnc3)cc3nc(NC(=O)NC4CC4)cn23)nc1	295 nM	571 nM	64 µg/mL (≈ 166 µM)	16 µg/mL (≈ 41.5 µM)	1 µg/mL (≈ 2.59 µM)	0.25 µg/mL (≈ 0.649 µM)	> 64 µg/mL
CCNC(=O)Nc1cn2c(-c3ncc(S(C)(=O)=O)cn3)cc(-c3cccnc3)cc2n1	433 nM	1830 nM	64 µg/mL (≈ 146 µM)	64 µg/mL (≈ 146 µM)	8 µg/mL (≈ 18.3 µM)	16 µg/mL (≈ 36.6 µM)	–
CCNC(=O)Nc1cn2c(-c3ncc(C)cn3)cc(-c3cnc(N4CCCC4)nc3)cc2n1	244 nM	366 nM	0.5 µg/mL (≈ 1.13 µM)	0.25 µg/mL (≈ 0.564 µM)	0.125 µg/mL (≈ 0.282 µM)	0.06 µg/mL (≈ 0.135 µM)	–
CCOC(=O)Nc1cn2c(-c3nccc(C)n3)cc(-c3cnc(N(C)C)nc3)cc2n1	1380 nM	6220 nM	64 µg/mL (≈ 153 µM)	0.25 µg/mL (≈ 0.597 µM)	0.5 µg/mL (≈ 1.19 µM)	0.125 µg/mL (≈ 0.299 µM)	–
CCC(=O)Nc1cn2c(-c3ncc(C)cn3)cc(-c3cccnc3)cc2n1	255 nM	5000 nM	64 µg/mL (≈ 179 µM)	16 µg/mL (≈ 44.6 µM)	16 µg/mL (≈ 44.6 µM)	16 µg/mL (≈ 44.6 µM)	> 64 µg/mL
CCNC(=O)Nc1cn2c(-c3ncc(C(F)(F)F)cn3)cc(-c3cccnc3)cc2n1	163 nM	367 nM	1 µg/mL (≈ 2.34 µM)	1 µg/mL (≈ 2.34 µM)	0.5 µg/mL (≈ 1.17 µM)	0.25 µg/mL (≈ 0.585 µM)	1 µg/mL (≈ 2.34 µM)
CCNC(=O)Nc1cn2c(-c3ncc(C)cn3)cc(-c3ccn(CCOC)c(=O)c3)cc2n1	401 nM	1640 nM	0.06 µg/mL (≈ 0.134 µM)	0.06 µg/mL (≈ 0.134 µM)	0.06 µg/mL (≈ 0.134 µM)	0.125 µg/mL (≈ 0.279 µM)	0.25 µg/mL (≈ 0.559 µM)
CCNC(=O)Nc1cn2c(-c3nccc(C4CC4)n3)cc(-c3cccnc3)cc2n1	330 nM	3750 nM	0.5 µg/mL (≈ 1.25 µM)	1 µg/mL (≈ 2.5 µM)	0.125 µg/mL (≈ 0.313 µM)	0.25 µg/mL (≈ 0.626 µM)	0.5 µg/mL (≈ 1.25 µM)
CCNC(=O)Nc1cn2c(-c3ncc(C)cn3)cc(-c3cnc(N(C)C)nc3)cc2n1	524 nM	1380 nM	1 µg/mL (≈ 2.4 µM)	0.5 µg/mL (≈ 1.2 µM)	0.25 µg/mL (≈ 0.599 µM)	0.125 µg/mL (≈ 0.299 µM)	4 µg/mL (≈ 9.58 µM)
CCNC(=O)Nc1cn2c(-c3ncc(C)cn3)cc(-c3ccc(OC)nc3)cc2n1	117 nM	147 nM	0.5 µg/mL (≈ 1.24 µM)	0.5 µg/mL (≈ 1.24 µM)	0.25 µg/mL (≈ 0.62 µM)	0.125 µg/mL (≈ 0.31 µM)	2 µg/mL (≈ 4.96 µM)
CCCn1ccc(-c2cc(-c3ncc(C)cn3)n3cc(NC(=O)NCC)nc3c2)cc1=O	97 nM	1020 nM	0.125 µg/mL (≈ 0.29 µM)	0.25 µg/mL (≈ 0.579 µM)	0.06 µg/mL (≈ 0.139 µM)	0.06 µg/mL (≈ 0.139 µM)	0.25 µg/mL (≈ 0.579 µM)
